In patent US20170258774A1 (priority 2016, published 2017):

How the values were obtained:
[1] = molecular target: BChE (Homo sapiens, UniProt P06276); format: biochemical
[2] = molecular target: BChE (Cavia porcellus, UniProt H0V4F8); format: biochemical, guinea pig
[3] = molecular target: BChE (Rattus norvegicus, UniProt Q9JKC1); format: biochemical
Sequence of BChE (Rattus norvegicus, UniProt Q9JKC1) (Q9JKC1 24-597 limits assumed): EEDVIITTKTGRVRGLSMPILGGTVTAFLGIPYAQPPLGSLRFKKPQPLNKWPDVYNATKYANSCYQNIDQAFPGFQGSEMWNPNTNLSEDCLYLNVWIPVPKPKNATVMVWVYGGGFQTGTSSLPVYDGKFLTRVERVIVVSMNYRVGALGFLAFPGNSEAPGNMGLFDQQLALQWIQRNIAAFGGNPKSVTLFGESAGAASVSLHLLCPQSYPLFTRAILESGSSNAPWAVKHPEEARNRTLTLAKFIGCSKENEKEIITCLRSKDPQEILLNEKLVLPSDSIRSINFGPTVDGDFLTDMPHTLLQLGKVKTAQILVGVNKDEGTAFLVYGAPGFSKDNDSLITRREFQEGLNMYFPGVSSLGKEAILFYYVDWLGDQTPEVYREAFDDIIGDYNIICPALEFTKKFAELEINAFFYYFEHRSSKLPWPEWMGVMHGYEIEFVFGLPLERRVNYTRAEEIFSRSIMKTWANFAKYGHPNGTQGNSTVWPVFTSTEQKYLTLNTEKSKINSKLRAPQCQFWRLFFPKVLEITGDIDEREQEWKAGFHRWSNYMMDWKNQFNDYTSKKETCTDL

Sequence of BChE (Homo sapiens, UniProt P06276) (P06276 29-602): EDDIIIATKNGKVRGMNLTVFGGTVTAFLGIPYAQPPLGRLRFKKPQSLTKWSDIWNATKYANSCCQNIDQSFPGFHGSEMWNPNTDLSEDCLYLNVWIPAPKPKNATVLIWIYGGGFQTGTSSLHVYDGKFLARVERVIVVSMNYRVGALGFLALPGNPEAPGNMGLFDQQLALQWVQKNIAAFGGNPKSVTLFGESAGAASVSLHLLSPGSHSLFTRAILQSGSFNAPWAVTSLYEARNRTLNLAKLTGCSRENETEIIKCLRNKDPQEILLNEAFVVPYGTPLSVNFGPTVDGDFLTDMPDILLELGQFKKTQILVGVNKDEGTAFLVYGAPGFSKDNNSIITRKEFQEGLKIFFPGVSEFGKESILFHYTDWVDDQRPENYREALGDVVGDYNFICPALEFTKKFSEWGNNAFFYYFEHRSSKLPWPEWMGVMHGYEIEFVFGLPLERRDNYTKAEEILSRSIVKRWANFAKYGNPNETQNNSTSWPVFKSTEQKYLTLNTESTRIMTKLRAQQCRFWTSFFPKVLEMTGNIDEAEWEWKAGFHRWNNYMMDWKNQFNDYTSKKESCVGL
Sequence of BChE (Cavia porcellus, UniProt H0V4F8) (H0V4F8 29-602 limits assumed): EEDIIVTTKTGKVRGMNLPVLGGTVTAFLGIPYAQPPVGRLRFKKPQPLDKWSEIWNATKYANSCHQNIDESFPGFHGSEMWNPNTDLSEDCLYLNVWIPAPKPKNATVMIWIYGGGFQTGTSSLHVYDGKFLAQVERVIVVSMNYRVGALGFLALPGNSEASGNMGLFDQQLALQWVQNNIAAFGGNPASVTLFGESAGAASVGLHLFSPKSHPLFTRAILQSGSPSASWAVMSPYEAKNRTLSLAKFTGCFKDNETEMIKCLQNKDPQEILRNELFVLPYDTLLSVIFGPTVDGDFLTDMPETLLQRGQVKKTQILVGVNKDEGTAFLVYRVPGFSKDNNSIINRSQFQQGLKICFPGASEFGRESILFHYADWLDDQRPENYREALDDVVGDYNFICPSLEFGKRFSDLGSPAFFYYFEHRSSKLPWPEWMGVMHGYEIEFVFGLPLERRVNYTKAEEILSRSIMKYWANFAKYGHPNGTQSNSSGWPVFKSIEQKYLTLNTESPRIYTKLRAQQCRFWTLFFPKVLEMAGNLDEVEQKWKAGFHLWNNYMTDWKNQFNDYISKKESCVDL

SMILES: CCOP(=O)(OCC)SCSCC [PHO, phorate oxon]
- OP Inhibitory Concentrations of at least 80% BChE [1]: 0.178 µM
- OP Inhibitory Concentrations of at least 80% BChE [2]: 5.60 µM
- OP Inhibitory Concentrations of at least 80% BChE [3]: 10.0 µM

SMILES: CCOP(=O)(OCC)SC[S+]([O-])CC (centres unmarked) [PHOsox, phorate oxon sulfoxide]
- BChE inhibitory potency relative to phorate oxon [3]: ten-fold more potent
- OP Inhibitory Concentrations of at least 80% BChE [3]: 1.00 µM

SMILES: CCOP(=O)(OCC)Oc1ccc([N+](=O)[O-])cc1 [PXN, phosphoric acid diethyl 4-nitrophenyl ester]
- OP Inhibitory Concentrations of at least 80% BChE [1]: 0.032 µM
- OP Inhibitory Concentrations of at least 80% BChE [2]: 0.178 µM
- OP Inhibitory Concentrations of at least 80% BChE [3]: 1.78 µM
